According to a melting point compilation (Tetko et al.; mined from patent text by program, amines drawn as free bases though some values may be those of a salt):

Row | melting point [°C] | Structure (SMILES)
1 | > 250 | COCn1cc(C2=C(c3cn(C)c4cc([N+](=O)[O-])ccc34)C(=O)NC2=O)c2ccccc21
2 | 195 to 197 | CN1CCCC(c2nc(-c3ccncc3)c(-c3ccc(F)cc3)[nH]2)C1 (stereo not drawn)
3 | 99 to 101 | COC(=O)[C@H]1CN(c2cc(F)c(N3CCSCC3)c(F)c2)C(=O)O1
4 | 177 to 178 | COC(=O)c1ccc(Cc2c(C(=O)OC)n(-c3ccccc3)c3nc(C)ccc3c2=O)cn1
5 | 182 to 184 | C=CCc1c(O)ccc2c1CCC(=O)N2CC=C(C)C
6 | 116 to 117 | CCCOc1cc(C(=O)CCC(=O)O)ccc1OCC
7 | 110 | CC1(C)COC1(Cn1cncn1)c1ccc(F)cc1 (stereo not drawn)
8 | 62 to 68 | CCC(C(=O)C(=O)O)c1ccccc1 (stereo not drawn)
9 | 105 | CC(C)(C)OC(=O)NCC(=O)N1[C@@H](C(=O)OC(C)(C)C)C[C@H](C(=O)O)[C@H]1c1ccccc1 (racemic)
10 | 176 to 178 | CS(=O)(=O)Nc1ccc(CCNC(=O)c2cc3cc(O)ccc3cc2O)cc1
11 | 152 to 154 | COc1cc(C=CC(=O)Nc2cnc3c(C)cc(C)cc3c2-c2ccccc2Cl)cc(OC)c1OC(C)=O
12 | 247 to 252 | CC(C)(C)c1cc(NC(=O)C2CCCCC2C(=O)O)cc(C(C)(C)C)c1O (stereo not drawn)
13 | 253 to 254 | CC(C)n1nc(-c2sc(NC(=O)c3ccc(I)cc3)nc2-c2ccccc2)ccc1=O
14 | 81 to 83 | CC(NC(=O)C(NC(=O)OCc1ccccc1)C(C)C)C(=O)NC(CC(=O)OC(C)(C)C)C(O)c1nc2ccccc2o1 (mixture of isomers)
15 | 150 | CCCCNC(=O)Oc1cccc(NC(=O)C=C(CCC)OC)c1
16 | 201 to 202 | NC(=O)/C=C1/c2cc(F)ccc2CC1O (stereo not drawn)
17 | 206 | Cc1ccc(=NS(=O)(=O)C(F)(F)F)n(-c2cccc(C(F)(F)F)c2)c1
18 | 65 to 68 | O=C(N1CCC1)N1CC(Oc2cccc(C(F)(F)F)c2)C1
19 | 216 to 218 | CNc1nc(C)c(-c2ccnc(Nc3ccc(CCO)cc3)n2)s1
20 | 106 | Clc1ccc(-c2ncn(CCCN3CCOCC3)c2-c2ccncc2)cc1Cl
21 | 245 to 246 | N#Cc1cccc(C2=Nc3ccc(C#Cc4ccc(F)cc4)cc3NC(=O)C2)c1
22 | 149 to 151 | Cc1c(NC(=O)c2ccc(C(C)(C)C)cc2)cccc1-c1cc(Br)c(=O)n(C)c1
23 | 131 | Cc1nn(-c2cccnc2)cc1I
24 | 118 to 120 | COc1cc2c(cc1OC(C)=O)C(=O)CCC2

Row | melting point [°C] | Structure (SMILES)
25 | 82.8 | O=C(c1ccccc1)N1CCOC(CCOS(=O)(=O)c2ccccc2)(c2ccc(F)c(F)c2)C1 (single isomer, unassigned; (+))
26 | 139 to 140 | COc1ccc(-c2nc(C(C)=O)oc2-c2ccc(OC)cc2)cc1
27 | 154 to 156 | Fc1ccc(COc2cccnc2NC(=S)Nc2ccc(Cl)cc2)c(F)c1
28 | 154 to 157 | COc1cccc2c1cc(C)n2Cc1c(Cl)cccc1Cl
29 | 140 to 145 | CN1C(=O)CC[C@]2(C)c3ccc(-c4ccc5ccccc5n4)cc3CC[C@@H]12
30 | 260 to 262 | CC(=O)Nc1ccc2c(c1)S(=O)(=O)N=C(NC(C)C)N2
31 | 45 to 47 | CCCCCCCCc1ccc(C(=O)C2CC2C(=O)O)cc1 (stereo not drawn)
32 | 213 to 214 | CC(C)(C)c1ccc(Nc2ncc(-c3ccc4ncncc4c3)c3ccccc23)cc1
33 | 193 to 194 | NC(=O)c1nc(-c2cccc(N)c2)cs1
34 | 173 to 175 | O=C(NCCN1CCCC1)c1ccc(OCc2ccc(-c3ccccc3)cc2)cc1
35 | 82 to 87 | Cc1ccccc1-c1ccc2c(c1)CC[C@H]1N(C)C(=O)CC[C@]21C
36 | 119 to 122 | Cc1ccc(C)n1N(C)c1ccc(N2CCOCC2)nn1
37 | 266 | CN(C(=O)Nc1ccsc1)c1cccc2cc(-c3nccs3)[nH]c12
38 | 218 to 220 | Nc1nc(Sc2ccc(F)cc2)cc(-c2ccccc2)n1
39 | 141 to 144 | CCC(=O)c1cc(C(=O)OC)c(N)cc1C(F)(F)F
40 | 287 to 288 | COc1cc(Nc2c(C#N)cnc3cc(-c4cccc([N+](=O)[O-])c4)ccc23)c(Cl)cc1Cl
41 | 98 to 103 | CCOC(=O)CN(c1ccc(N)cc1)S(=O)(=O)c1cccc2ccccc12
42 | 119 to 121 | O=C(Nc1cccc(-n2nc(C(F)(F)F)cc2C(F)(F)F)c1)c1cccc(Cl)c1Cl
43 | > 250 | NCc1ccccc1CN
44 | 144 to 146 | CCOC(=O)NC(=O)C(C#N)=CNNc1ccc(OC(F)F)cc1
45 | 157 to 159 | CC(=NOCCOc1ccc(CC2SC(=O)NC2=O)cc1)c1ccc(O)cc1 (stereo not drawn)
46 | 188 | CC(=NNC(=O)OC1CC(C)CCC1C(C)C)c1ccncc1 (stereo not drawn)
47 | 145 | CCCCCCCC(c1cc(C)cc(N=Nc2ccc(C)cc2[N+](=O)[O-])c1O)c1cc(C)cc(N=Nc2ccc(C)cc2[N+](=O)[O-])c1O (stereo not drawn)
48 | 196 to 198 | COc1cc(CN2CCN(C(=O)c3ccc4c(c3)C(=O)C3(CC3)O4)CC2)cc(OC)c1OC

Row | melting point [°C] | Structure (SMILES)
49 | 182 to 186 | Cc1cccc2c1nc(-c1c(F)cccc1F)n2Cc1c(F)cccc1F
50 | 89 to 91 | CCOC(=O)c1cnc(-c2ccccc2OCC(C)C)[nH]c1=O
51 | 319 to 321 | CC(C)c1nc2c([nH]1)c(=O)[nH]c(=O)n2Cc1cccc(Cl)c1
52 | 130 to 131 | CCN1CCN(C(=O)c2ccc(C(=O)N3CCN(c4ncccc4NC(C)C)CC3)cc2)CC1
53 | 135 to 137 | COC(=O)C(Oc1ccc(F)cc1)c1ccc(Oc2ccc(S(C)(=O)=O)cc2)cc1 (stereo not drawn)
54 | 149 to 151 | CC(=O)OC1C(OC2=NN(Cc3ccccc3)C(=O)C3CC23)c2cc(C#N)ccc2OC1(C)C (stereo not drawn)
55 | 59 to 61 | Clc1ccc(-n2nc3c(c2Cl)CCCCC3)cc1
56 | 113 | Cc1ccc(Oc2ccc(C(F)(F)F)cc2Cl)cc1C(=O)O
57 | 161 to 163 | CC(c1ccncc1)C(O)(Cn1cncn1)c1ccc(F)cc1F (stereo not drawn)
58 | 187 to 189 | O=c1[nH][nH]c(=O)n1CCOc1ccccc1
59 | 203 to 204 | CCOC(=O)c1ncn2c1Cn1ccnc1-c1sccc1-2
60 | 146 | CCOc1ccc2[nH]c(=O)n(C34CC5CC(CC(C5)C3)C4)c2c1
61 | 193 to 194 | FC(F)(F)C1(c2cc(Cl)cc(Cl)c2)CCN(c2ccc(-n3cnnn3)c(Br)c2)C1 (stereo not drawn)
62 | 308 to 311 | Cc1c(F)cc2[nH]c(=O)c(=O)[nH]c2c1[N+](=O)[O-]
63 | 280 to 281 | O=C1NC(=O)C2(CCS(=O)(=O)c3ccccc32)N1 (stereo not drawn)
64 | 230 to 233 | Nc1nc2c(sc(=S)n2C2OC(COC(=O)c3ccccc3)C(OC(=O)c3ccccc3)C2OC(=O)c2ccccc2)c(=O)[nH]1 (stereo not drawn)
65 | 100 to 101 | Nc1cc(N2CCCCC2)ccc1[N+](=O)[O-]
66 | 113 to 114 | CCOC(=O)C1=C(CF)NC(CF)=C(C(=O)OCC)C1c1cccc([N+](=O)[O-])c1
67 | 195 to 196 | CCc1c2nc(-c3cc(C(C)=O)cnc3OCC(C)C)[nH]c(=O)c2nn1C1CCN(C)CC1
68 | 203 to 204 | CCOc1cc2cc(CO)cc(-c3ccnc(-n4nc(-c5ccccc5)c5ccccc5c4=O)c3)c2cc1OCC
69 | 92 to 95 | Cc1ccc(C(=O)CCN(C)Cc2cccc3ccccc23)cc1
70 | 167 to 169 | CC(=O)OC1CSC(Oc2cncc(-c3ccc(F)nc3)c2)C(OC(C)=O)C1OC(C)=O (stereo not drawn)
71 | 180 to 183 | Cc1nc(NC(=O)c2ccccc2)sc1C(=O)NCc1ccccc1F
72 | 203 to 205 | Cc1ccc(N2CCN([C@@H](Cc3ccc(OCCc4nc(-c5ccccc5)oc4C)c(Br)c3)C(=O)O)CC2)cc1

Row | melting point [°C] | Structure (SMILES)
73 | 109 to 110 | CC(C)(c1ccc(S(=O)(=O)N(CCO)CCO)cc1[N+](=O)[O-])[N+](=O)[O-]
74 | 215 to 217 | O=C(O)COc1cccc2c1CC(S(=O)(=O)Cc1ccccc1)c1sc(-c3cccc(F)c3)nc1-2 (stereo not drawn)
75 | 147 to 149 | O=C(O)[C@@H]1CCCN1Cc1cc2cc3c(cc2c2cc(OCc4ccccc4)ccc12)OCO3
76 | 64 to 65 | COc1cc(CCCCCCC=O)ccc1OCc1nc(-c2ccccc2)oc1C
77 | 80 to 81 | Cc1sc(-c2ccccc2)nc1COc1ccc(CCCC2OCCO2)cc1
78 | 112 to 116 | CCCCn1c(C)c(C)cc(O)c1=O
79 | 201 to 202 | Nc1ncnc2c1ncn2C1CCC(O)C1O (stereo not drawn)
80 | 108 to 111 | COc1ccccc1CC(=O)N1CCCc2ncc3ccccc3c21
81 | 268 to 269 | Cc1nc2c(s1)-c1nc(Nc3ccc(O)cc3)ncc1CC2
82 | 82 to 84 | CC(C)NCC(O)COc1ccccc1C1=NN(C)C(=O)CC1 (stereo not drawn)
83 | 81 to 83 | CCOC(=O)CCc1cn(CC(=O)N(C)CCc2ccccc2)c2ccc(OCc3ccccc3)cc12
84 | 110 to 111 | Oc1cccc(CCCn2ccnc2)c1
85 | 82 to 84 | C#CCOC(=O)c1ccc(O)cc1
86 | 239 to 240 | COc1cc(Cl)c2c(c1)NC(=O)C(C)(c1ccc(Br)cc1)C2=O (stereo not drawn)
87 | 101 to 103 | COCC(=O)Oc1cc(-n2c(=O)cc(C(F)(F)F)n(C)c2=O)c(F)cc1Cl
88 | 155 to 157 | O=C1C(=CO)CC[C@H]2C(=O)C(=CO)CC[C@H]12
89 | 225 to 227 | NC(=O)c1sc2nccc(N3CCN(C/C=C/c4ccccc4)CC3)c2c1N
90 | 96 | CCC[C@H]1CC[C@H](C(=O)Oc2ccc(-c3ccc(F)cc3)cc2)CC1
91 | 169 to 171 | COc1cc2c(cc1OC)C(Cc1cc(I)c(N)c(I)c1)NCC2 (stereo not drawn)
92 | 282 to 285 | Cc1ccc(C2CC(N)=NN2c2nc3ccccc3s2)cc1 (stereo not drawn)
93 | 63 to 65 | FC(F)(F)Oc1ccc(-n2cc(Br)cn2)cc1

Row | Structure (SMILES) | melting point [°C]
94 | O=[N+]([O-])C=Cc1ccc(O)c(Cl)c1 | 127 to 129
95 | O=c1[nH]c2cc(F)ccc2c(=O)n1CCCN1CC=C(c2ccc(Cl)cc2)CC1 | 197 to 198
96 | COc1cccc(NC(=O)NC2N=C(c3ccccc3F)c3ccccc3N(C)C2=O)c1 (stereo not drawn) | 271 to 273
97 | CN1C(=S)N(c2ccc(C#N)c(C(F)(F)F)c2)C(=O)C1(C)C | 171
98 | Clc1ccc(N2CCN3CCC2CC3)nn1 | 127 to 128
